Assay [1] addresses T1, Full length WRN protein (aa 2-1432) (Homo sapiens (Human), UniProt Q14191). The assay is described as follows: WRN ATPase ADP-Glo biochemical assay, Assay Format A (10 μM ATP). The conditions noted are these: 0.25 nM WRN, 100 nM C6.18 ssDNA, 30 min preincubation, read-out: ATPase ADPGlo AC50 (uM)- Assay Format A. An outline of the steps:
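ADP-Glo luminescence measured hydrolysis of ATP by purified, baculovirus-expressed N-terminally tagged full-length WRN. Enzyme (0.5 nM) was preincubated 30 min with compound, then 200 nM ssDNA C6.18 plus 20 μM ATP were added (pre-mix levels) for 30 min at RT. IC50s come from four-parameter fits, geometric mean of at least two trials.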
Background: ADP-Glo turns the ADP formed in a reaction into a luminescent signal.

The target of assay [2] is T1, Full length WRN protein (aa 2-1432). Briefly: WRN ATPase ADP-Glo biochemical assay, Assay Format B (100 μM ATP). The conditions noted are these: 0.25 nM WRN, 100 nM C6.18 ssDNA, 60 min preincubation, read-out: ATPase ADPGlo AC50 (uM)- Assay Format B.
Another assay relates to HCT116 cells. Briefly: HCT116 (MSI) 7 day viability, CellTiter Glo. It counts as cell-based. The conditions noted are these: 7 days, read-out: HCT116 (MSI) Viability 7 Day Abs AC50. An outline of the steps: (§1)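 For each line, compound dilution series (3-fold, 10 points) met a defined seeding density—HCT116 50, HT29 500 cells/well—followed by 7 days at 37 °C. Luminescent ATP signal, background-corrected with no-cell wells, gave four-parameter logistic IC50s.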
Background: In ATP-based viability assays light output follows the ATP content of the culture.

The subject of another assay is HT29 cells. Briefly: HT29 (MSS) 7 day viability, CellTiter Glo. Format: cell-based. The conditions noted are these: 7 days, read-out: HT29 (MSS) Viability 7 Day CTGAbs AC50. An outline of the steps:
as §1

The structures appear in SMILES notation. Like-named read-outs stand apart in the source and are kept apart here.

T1 sequence (Q14191 2-1432): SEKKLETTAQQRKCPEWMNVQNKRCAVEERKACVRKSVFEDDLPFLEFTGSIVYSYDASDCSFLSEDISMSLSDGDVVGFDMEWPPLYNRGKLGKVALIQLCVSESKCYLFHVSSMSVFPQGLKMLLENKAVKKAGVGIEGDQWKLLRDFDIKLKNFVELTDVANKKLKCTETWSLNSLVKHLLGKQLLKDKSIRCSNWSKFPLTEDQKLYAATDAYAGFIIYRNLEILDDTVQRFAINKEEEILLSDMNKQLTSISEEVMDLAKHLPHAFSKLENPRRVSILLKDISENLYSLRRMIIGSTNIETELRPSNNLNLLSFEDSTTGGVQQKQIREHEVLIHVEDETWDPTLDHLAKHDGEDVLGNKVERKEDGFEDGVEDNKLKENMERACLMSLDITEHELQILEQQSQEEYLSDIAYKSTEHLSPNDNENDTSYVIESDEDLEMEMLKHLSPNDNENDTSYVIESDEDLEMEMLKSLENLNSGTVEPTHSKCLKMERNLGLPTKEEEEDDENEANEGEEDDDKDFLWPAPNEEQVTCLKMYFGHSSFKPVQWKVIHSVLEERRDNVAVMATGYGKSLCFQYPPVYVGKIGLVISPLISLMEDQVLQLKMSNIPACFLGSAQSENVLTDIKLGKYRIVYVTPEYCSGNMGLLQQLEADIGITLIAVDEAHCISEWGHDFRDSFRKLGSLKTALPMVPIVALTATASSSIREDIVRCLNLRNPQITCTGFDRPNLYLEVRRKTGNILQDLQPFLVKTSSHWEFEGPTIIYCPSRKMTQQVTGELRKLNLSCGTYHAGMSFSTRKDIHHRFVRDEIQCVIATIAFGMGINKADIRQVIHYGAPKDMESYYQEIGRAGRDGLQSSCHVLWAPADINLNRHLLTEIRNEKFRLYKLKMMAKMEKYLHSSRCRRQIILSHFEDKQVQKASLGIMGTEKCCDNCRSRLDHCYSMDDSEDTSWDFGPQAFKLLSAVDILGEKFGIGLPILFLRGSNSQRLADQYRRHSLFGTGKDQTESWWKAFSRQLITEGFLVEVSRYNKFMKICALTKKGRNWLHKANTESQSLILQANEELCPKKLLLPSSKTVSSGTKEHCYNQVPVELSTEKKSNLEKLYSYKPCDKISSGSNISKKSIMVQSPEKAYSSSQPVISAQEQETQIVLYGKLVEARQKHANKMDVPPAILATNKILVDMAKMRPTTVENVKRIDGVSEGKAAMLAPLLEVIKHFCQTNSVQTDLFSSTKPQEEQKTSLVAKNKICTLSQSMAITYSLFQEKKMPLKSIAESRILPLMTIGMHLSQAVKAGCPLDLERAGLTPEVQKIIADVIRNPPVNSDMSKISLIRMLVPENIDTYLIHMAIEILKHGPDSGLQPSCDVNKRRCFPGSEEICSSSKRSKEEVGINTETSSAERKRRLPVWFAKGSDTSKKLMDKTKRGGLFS

Consider `C=CC(=O)N1CCOc2nn(-c3ccc(C4CC4)cc3)c3c2C(C1)N(C(=O)c1ccc(C(F)(F)F)c2[nH]ncc12)CC3` (stereo not shown) [Compound 50, 1-(2-(4-cyclopropylphenyl)-5-(7-(trifluoromethyl)-1H-indazole-4-carbonyl)-2,3,4,5,5a,6,8,9-octahydro-7H-10-oxa-1,2,5,7-tetraazacycloocta[cd]inden-7-yl)prop-2-en-1-one], for which the AC50 in assay [1] is 0.0015 to 0.005 µM; in assay [2], 0.015 to 0.055 µM; in the assay on HCT116 cells (Homo sapiens, HCT-116, 168 h), 100 to 250 nM; in the assay with HT29 cells (Homo sapiens, HT-29, 168 h), over 3000 nM.
In the case of `C=CC(=O)N1CC(C)Oc2nn(-c3ccc(C(C)C)cc3)c3c2C(C1)N(C(=O)c1ccc(Br)c2[nH]cnc12)CC3` (stereo not shown) [Compound 52, 1-(5-(7-bromo-1H-benzo[d]imidazole-4-carbonyl)-2-(4-isopropylphenyl)-9-methyl-2,3,4,5,5a,6,8,9-octahydro-7H-10-oxa-1,2,5,7-tetraazacycloocta[cd]inden-7-yl)prop-2-en-1-one], the AC50 was 0.005 to 0.015 µM in assay [1]; over 0.055 µM in assay [2]; 250 to 500 nM in the assay with HCT116 cells (Homo sapiens, HCT-116, 168 h); over 3000 nM in the assay with HT29 cells (Homo sapiens, HT-29, 168 h).
For `C=CC(=O)N1CC(C)Oc2nn(-c3ccc(C(C)C)cc3)c3c2C(C1)N(C(=O)c1ccc(Br)c2[nH]cnc12)CC3` (stereo not shown) [Compound 53, 1-(5-(7-bromo-1H-benzo[d]imidazole-4-carbonyl)-2-(4-isopropylphenyl)-9-methyl-2,3,4,5,5a,6,8,9-octahydro-7H-10-oxa-1,2,5,7-tetraazacycloocta[cd]inden-7-yl)prop-2-en-1-one], the AC50 is 0.015 to 0.055 µM in assay [1], over 0.055 µM in assay [2], 500 to 1000 nM in the assay with HCT116 cells and over 3000 nM with HT29 cells.
As for `C=CC(=O)N1CC(F)Oc2nn(-c3ccc(C(C)C)cc3)c3c2C(C1)N(C(=O)c1ccc(Br)c2[nH]cnc12)CC3` (stereo not shown) [Compound 54, 1-(5-(7-bromo-1H-benzo[d]imidazole-4-carbonyl)-9-fluoro-2-(4-isopropylphenyl)-2,3,4,5,5a,6,8,9-octahydro-7H-10-oxa-1,2,5,7-tetraazacycloocta[cd]inden-7-yl)prop-2-en-1-one], the AC50 in assay [1] was under 0.0015 µM; in assay [2], 0.005 to 0.015 µM; with HCT116 cells, over 1000 nM; in the assay on HT29 cells (Homo sapiens, HT-29, 168 h), over 3000 nM.
In the case of `C=CC(=O)N1CC(F)Oc2nn(-c3ccc(C(C)C)cc3)c3c2C(C1)N(C(=O)c1ccc(Br)c2[nH]cnc12)CC3` (stereo not shown) [Compound 55, 1-(5-(7-bromo-1H-benzo[d]imidazole-4-carbonyl)-9-fluoro-2-(4-isopropylphenyl)-2,3,4,5,5a,6,8,9-octahydro-7H-10-oxa-1,2,5,7-tetraazacycloocta[cd]inden-7-yl)prop-2-en-1-one], the AC50 was under 0.0015 µM in assay [1], 0.015 to 0.055 µM in assay [2], 100 to 250 nM in the assay with HCT116 cells and over 3000 nM with HT29 cells.
As for `C=CC(=O)N1CCc2nn(-c3ccc(C(C)C)c(F)c3N)c3c2C(C1)N(C(=O)c1cnc(C(F)(F)F)c(O)c1)CC3` (stereo not shown) [Compound 57, 1-(2-(2-amino-3-fluoro-4-isopropylphenyl)-5-(5-hydroxy-6-(trifluoromethyl)nicotinoyl)-2,3,4,5,5a,6,8,9-octahydro-7H-1,2,5,7-tetraazabenzo[cd]azulen-7-yl)prop-2-en-1-one], the AC50 in assay [1] was 0.0015 to 0.005 µM; in assay [2], 0.015 to 0.055 µM; in the assay on HCT116 cells (Homo sapiens, HCT-116, 168 h), 100 to 250 nM; with HT29 cells (Homo sapiens, HT-29, 168 h) it was over 3000 nM.
Regarding `C=CC(=O)N1CCc2nn(-c3ccc(C(C)C)cc3)c3c2C(C1)N(C(=O)c1ccc(C(F)(F)F)c(=O)[nH]1)CC3` (stereo not shown) [Compound 58, 6-(7-acryloyl-2-(4-isopropylphenyl)-3,4,5,5a,6,7,8,9-octahydro-2H-1,2,5,7-tetraazabenzo[cd]azulene-5-carbonyl)-3-(trifluoromethyl)pyridin-2(1H)-one], the AC50 is 0.0015 to 0.005 µM in assay [1]; 0.015 to 0.055 µM in assay [2]; 100 to 250 nM in the assay on HCT116 cells (Homo sapiens, HCT-116, 168 h); over 3000 nM in the assay with HT29 cells (Homo sapiens, HT-29, 168 h).
For the compound `C=CC(=O)N1CCc2nn(-c3ccc(C(C)C)cc3)c3c2C(C1)N(C(=O)c1cnc(C(F)(F)F)c(OCC(N)=O)c1)CC3` (stereo not shown) [Compound 59, 2-((5-(7-acryloyl-2-(4-isopropylphenyl)-3,4,5,5a,6,7,8,9-octahydro-2H-1,2,5,7-tetraazabenzo[cd]azulene-5-carbonyl)-2-(trifluoromethyl)pyridin-3-yl)oxy)acetamide], the AC50 in assay [1] is 0.0015 to 0.005 µM; in assay [2] it was 0.015 to 0.055 µM; in the assay on HCT116 cells (Homo sapiens, HCT-116, 168 h) it was 100 to 250 nM; in the assay with HT29 cells (Homo sapiens, HT-29, 168 h) it was over 3000 nM.
For `C=CC(=O)N1CCc2nn(-c3ccc(C(C)C)cc3)c3c2C(C1)N(C(=O)c1cnc(C(F)(F)F)c(OC2CNC2)c1)CC3` (stereo not shown) [Compound 60, 1-(5-(5-(azetidin-3-yloxy)-6-(trifluoromethyl)nicotinoyl)-2-(4-isopropylphenyl)-2,3,4,5,5a,6,8,9-octahydro-7H-1,2,5,7-tetraazabenzo[cd]azulen-7-yl)prop-2-en-1-one] the same measures were 0.005 to 0.015 µM, over 0.055 µM, over 1000 nM and over 3000 nM.
As to `C=CC(=O)N1CCc2nn(-c3ccc(C(C)C)cc3)c3c2C(C1)N(C(=O)c1ccc(Br)cc1C(N)=O)CC3` (stereo not shown) [Compound 61, 2-(7-acryloyl-2-(4-isopropylphenyl)-3,4,5,5a,6,7,8,9-octahydro-2H-1,2,5,7-tetraazabenzo[cd]azulene-5-carbonyl)-5-bromobenzamide], the AC50 in assay [1] was 0.005 to 0.015 µM; in assay [2] it was over 0.055 µM; in the assay with HCT116 cells (Homo sapiens, HCT-116, 168 h), 250 to 500 nM; in the assay on HT29 cells (Homo sapiens, HT-29, 168 h) it was over 3000 nM.
For `C=CC(=O)N1CCc2nn(-c3ccc(C4CCC4)cc3O)c3c2C(C1)N(C(=O)c1cnc(Br)c(OC(F)(F)F)c1)CC3` (stereo not shown) [Compound 62, 1-(5-(6-bromo-5-(trifluoromethoxy)nicotinoyl)-2-(4-cyclobutyl-2-hydroxyphenyl)-2,3,4,5,5a,6,8,9-octahydro-7H-1,2,5,7-tetraazabenzo[cd]azulen-7-yl)prop-2-en-1-one] the same measures were 0.0015 to 0.005 µM, over 0.055 µM, 100 to 250 nM and over 3000 nM.
In the same order, the values of `C=CC(=O)N1CCc2nn(-c3ccc(C4CC4)c(F)c3OC)c3c2C(C1)N(C(=O)c1cnc(C(F)(F)F)c(O)c1)CC3` (stereo not shown) [Compound 63, 1-(2-(4-cyclopropyl-3-fluoro-2-methoxyphenyl)-5-(5-hydroxy-6-(trifluoromethyl)nicotinoyl)-2,3,4,5,5a,6,8,9-octahydro-7H-1,2,5,7-tetraazabenzo[cd]azulen-7-yl)prop-2-en-1-one] are 0.0015 to 0.005 µM, 0.015 to 0.055 µM, 500 to 1000 nM and over 3000 nM.
Turning to `C=CC(=O)N1CCc2nn(-c3ccc(C(C)C)cc3)c3c2C(C1)N(C(=O)c1ccc(Br)c2c1CCO2)CC3` (stereo not shown) [Compound 65, 1-(5-(7-bromo-2,3-dihydrobenzofuran-4-carbonyl)-2-(4-isopropylphenyl)-2,3,4,5,5a,6,8,9-octahydro-7H-1,2,5,7-tetraazabenzo[cd]azulen-7-yl)prop-2-en-1-one], the AC50 is under 0.0015 µM in assay [1]; 0.015 to 0.055 µM in assay [2]; 1 to 100 nM in the assay on HCT116 cells (Homo sapiens, HCT-116, 168 h); over 3000 nM in the assay with HT29 cells (Homo sapiens, HT-29, 168 h).

A word on the AC50: it is the concentration at which the activity in the assay is half-maximal.

For the origin of these results see patent US20250346600A1, “TRICYCLIC DERIVATIVES AND RELATED USES” (MOMA Therapeutics, Inc., priority 2023, published 2025).
